Measurements taken from patent publication US7423038B2, “Compounds and compositions as protein kinase inhibitors” (IRM LLC (a Delaware Limited Liability Corporation), priority 2004, dated 2008).

Tests used:
Syk = target: T1, Syk (Homo sapiens, UniProt P43405); experiment: Upstate KinaseProfiler radio-enzymatic filter binding assay, Syk; format: biochemical; settings: at a concentration of 10 μM; read-out: percentage inhibition of Syk
T1 construct: purchased Upstate (KinaseProfiler panel)
Procedure: (§1) Compounds of the invention are assessed for their ability to inhibit individual members of the kinase panel. The compounds are tested in duplicates at a final concentration of 10 μM following this generic protocol, Note that the kinase buffer composition and the substrates vary for the different kinases included in the “Upstate KinaseProfiler™” panel. Kinase buffer (2.5 μL, 10x—containing MnCl2 when required), active kinase (0.001-0.01 Units; 2.5 μL), specific or Poly(Glu-4-Tyr) peptide (5-500 μM or 0.01 mg/ml) in kinase buffer and kinase buffer ([…]; 5 μL) are mixed in an eppendorf on ice. A Mg/ATP mix (10 μL; 67.5 (or 33.75) mM MgCl2, 450 (or 225) μM ATP and 1 μCi/μl [γ-^32P]-ATP (3000 Ci/mmol)) is added and the reaction is incubated at about 30° C. for about 10 minutes. The reaction mixture is spotted (20 μL) onto a 2 cm×2 cm P81 (phosphocellulose, for positively charged peptide substrates) or Whatman No, 1 (for Poly (Glu-4-Tyr) peptide substrate) paper square. The assay squares are washed 4 times, for 5 minutes each, with 0.75% phosphoric acid and washed once with acetone for 5 minutes. The assay squares are transferred to a scintillation vial, 5 ml scintillation cocktail are added and ^32P incorporation (cpm) to the peptide substrate is quantified with a Beckman scintillation counter. Percentage inhibition is calculated for each reaction.

MKK6 = target: T2, MKK6 (Homo sapiens, UniProt P52564); experiment: Upstate KinaseProfiler radio-enzymatic filter binding assay, MKK6; format: biochemical; settings: at a concentration of 10 μM; read-out: percentage inhibition of MKK6
T2 construct: purchased Upstate (KinaseProfiler panel)
Excerpt: (§2) “Kinase Panel” is a list of kinases comprising Abl(human), Abl(T315I), JAK2, JAK3, ALK, JNK1α1, ALK4, KDR, Aurora-A, Lck, Blk, MAFK1, Bmx, MAPKAP-K2, BRK, MEK1, CaMKII(rat), Met, CDK1/cyclinB, p70S6K, CHK2, PAK2, CK1, PDGFRα, CK2, PDK1, c-kit, Pim-2, c-RAF, PKA(h), CSK, PKBα, cSrc, PKCα, DYRK2, Plk3, EGFR, ROCK-I, Fes, Ron, FGFR3, Ros, Flt3, SAPK2α, Fms, SGK, Fyn, SIK, GSK3β, Syk, IGF-IR, Tie-2, IKKβ, TrKB, IR, WNK3, IRAK4, ZAP-70, ITK, AMPK(rat), LIMK1, Rsk2, Ax1, LKB1, SAFK2β, BrSK2, Lyn (h), SAPK3, BTK, MAPKAP-K3, SAPK4, CaMKIV, MARK1, Snk, CDK2/cyclinA, MINK, SRPK1, CDK3/cyclinE, MKK4(m), TAK1, CDK5/p25, MKK6(h), TBK1, CDK6/cyclinD3, MLCK, TrkA, CDK7/cyclinH/MAT1, MRCKβ, TSSK1, CHK1, MSK1, Yes, CK1d, MST2, ZIPK, c-Kit (D816V), MuSK, DAPK2, NEK2, DDR2, NEK6, DMPK, PAK4, DRAK1, PAR-1Bα, EphA1, PDGFRβ, EphA2, Pim-1, EphA5, PKBβ, EphB2, PKCβI, EphB4, PKCδ, FGFR1, PKCη, FGFR2, PKCθ, FGFR4, PKD2, Fgr, PKG1β, Flt1, PRK2, Hck, PYK2, HIPK2, Ret, IKKα, RIPK2, IRR, ROCK-II(human), JNK2α2, Rse, JNK3, Rsk1(h), PI3 Kγ, PI3 Kδ and PI3-Kβ. […]
(§3) Compounds of the invention are assessed for their ability to inhibit individual members of the kinase panel. […] The assay squares are transferred to a scintillation vial, 5 ml scintillation cocktail are added and ^32P incorporation (cpm) to the peptide substrate is quantified with a Beckman scintillation counter. […]

wild type Bcr-abl = target: T3, wild type Bcr-abl (Homo sapiens, UniProt P00519); experiment: Antiproliferative effect on Ba/F3 cells expressing wild type Bcr-abl; format: cell-based
T3 construct: BCR (fusion partner); expressed in transfected cells; host or cells: Ba/F3 (murine pro-B cells); the other entry of the earlier key: BCR (P11274, Breakpoint cluster region protein)
Procedure: (§4) 32D-p210 cells are plated into 96 well TC plates at a density of 15,000 cells per well. 50 μL of two fold serial dilutions of the test compound (Cmax is 40 μM) are added to each well (STI571 is included as a positive control). After incubating the cells for 48 hours at 37° C., 5% CO2, 15 μl, of MTT (Promega) is added to each well and the cells are incubated for an additional 5 hours. The optical density at 570 nm is quantified spectrophotometrically and IC50 values, the concentration of compound required for 50% inhibition, determined from a dose response curve.
(§5) Compounds of the invention are tested for their antiproliferative effect on Ba/F3 cells expressing either wild type or the mutant forms of BCR-Abl (G250E, E255V, T315I, F317L, M351T) that confers resistance or diminished sensitivity to STI571. The antiproliferative effect of these compounds on the mutant-BCR-Abl expressing cells and on the non transformed cells were tested at 10, 3.3, 1.1 and 0.37 μM as described above (in media lacking IL3). The IC50 values of the compounds lacking toxicity on the untransformed cells were determined from the dose response curves obtained as describe above.

Fes = target: T4, Fes (Homo sapiens, UniProt P07332); experiment: Upstate KinaseProfiler radio-enzymatic filter binding assay, Fes; format: biochemical; settings: at a concentration of 10 μM; read-out: percentage inhibition of Fes
T4 construct: purchased Upstate (KinaseProfiler panel)
Procedure: as §1

CSK = target: T5, CSK (Homo sapiens, UniProt P41240); experiment: Upstate KinaseProfiler radio-enzymatic filter binding assay, CSK; format: biochemical; settings: at a concentration of 10 μM; read-out: percentage inhibition of CSK
T5 construct: purchased Upstate (KinaseProfiler panel)
Procedure: as §1

c-RAF = target: T6, c-RAF (Homo sapiens, UniProt P04049); experiment: Upstate KinaseProfiler radio-enzymatic filter binding assay, c-RAF; format: biochemical; settings: at a concentration of 10 μM; read-out: percentage inhibition of c-RAF
T6 construct: purchased Upstate (KinaseProfiler panel)
Procedure: as §1

p70S6K = target: T7, p70S6K (Homo sapiens, UniProt P23443); experiment: Upstate KinaseProfiler radio-enzymatic filter binding assay, p70S6K; format: biochemical; settings: at a concentration of 10 μM; read-out: percentage inhibition of p70S6K
T7 construct: purchased Upstate (KinaseProfiler panel)
Procedure: as §1

Flt3 = target: T8, Flt3 (Homo sapiens, UniProt P36888); experiment: Upstate KinaseProfiler radio-enzymatic filter binding assay, Flt3; format: biochemical; settings: at a concentration of 10 μM; read-out: percentage inhibition of Flt3
T8 construct: purchased Upstate (KinaseProfiler panel)
Procedure: as §1

T315I Bcr-abl = target: T9, T315I Bcr-abl (Homo sapiens, UniProt P00519, T315I); experiment: Antiproliferative effect on Ba/F3 cells expressing T315I Bcr-abl; format: cell-based; settings: T315I mutant
T9 construct: BCR (fusion partner); expressed in transfected cells; host or cells: Ba/F3 (murine pro-B cells); the other entry of the earlier key: BCR (P11274, Breakpoint cluster region protein)
Procedure: as §4, §5

GSK3β = target: T10, GSK3β (Homo sapiens, UniProt P49841); experiment: Upstate KinaseProfiler radio-enzymatic filter binding assay, GSK3β; format: biochemical; settings: at a concentration of 10 μM; read-out: percentage inhibition of GSK3β
T10 construct: purchased Upstate (KinaseProfiler panel)
Procedure: as §1

JNK1α1 = target: T11, JNK1α1 (Homo sapiens, UniProt P45983); experiment: Upstate KinaseProfiler radio-enzymatic filter binding assay, JNK1α1; format: biochemical; settings: at a concentration of 10 μM; read-out: percentage inhibition of JNK1α1
T11 construct: purchased Upstate (KinaseProfiler panel)
Procedure: as §1

G250E Bcr-abl = target: T12, G250E Bcr-abl (Homo sapiens, UniProt P00519, G250E); experiment: Antiproliferative effect on Ba/F3 cells expressing G250E Bcr-abl; format: cell-based; settings: G250E mutant
T12 construct: BCR (fusion partner); expressed in transfected cells; host or cells: Ba/F3 (murine pro-B cells); the other entry of the earlier key: BCR (P11274, Breakpoint cluster region protein)
Procedure: as §4, §5

E255V Bcr-abl = target: T13, E255V Bcr-abl (Homo sapiens, UniProt P00519, E255V); experiment: Antiproliferative effect on Ba/F3 cells expressing E255V Bcr-abl; format: cell-based; settings: E255V mutant
T13 construct: BCR (fusion partner); expressed in transfected cells; host or cells: Ba/F3 (murine pro-B cells); the other entry of the earlier key: BCR (P11274, Breakpoint cluster region protein)
Procedure: as §4, §5

MKK4 = target: T14, MKK4 (Mus musculus, UniProt P47809); experiment: Upstate KinaseProfiler radio-enzymatic filter binding assay, MKK4; format: biochemical; settings: at a concentration of 10 μM; read-out: percentage inhibition of MKK4
T14 construct: purchased Upstate (KinaseProfiler panel)
Excerpt: as §2, §3

Bmx = target: T15, Bmx (Homo sapiens, UniProt P51813); experiment: Upstate KinaseProfiler radio-enzymatic filter binding assay, Bmx; format: biochemical; settings: at a concentration of 10 μM; read-out: percentage inhibition of Bmx
T15 construct: purchased Upstate (KinaseProfiler panel)
Procedure: as §1

IR = target: T16, IR (Homo sapiens, UniProt P06213); experiment: Upstate KinaseProfiler radio-enzymatic filter binding assay, IR; format: biochemical; settings: at a concentration of 10 μM; read-out: percentage inhibition of IR
T16 construct: purchased Upstate (KinaseProfiler panel)
Procedure: as §1

TrkB = target: T17, TrkB (Homo sapiens, UniProt Q16620); experiment: Upstate KinaseProfiler radio-enzymatic filter binding assay, TrkB; format: biochemical; settings: at a concentration of 10 μM; read-out: percentage inhibition of TrkB
T17 construct: purchased Upstate (KinaseProfiler panel)
Procedure: as §1

M351T Bcr-abl = target: T18, M351T Bcr-abl (Homo sapiens, UniProt P00519, M351T); experiment: Antiproliferative effect on Ba/F3 cells expressing M351T Bcr-abl; format: cell-based; settings: M351T mutant
T18 construct: BCR (fusion partner); expressed in transfected cells; host or cells: Ba/F3 (murine pro-B cells); the other entry of the earlier key: BCR (P11274, Breakpoint cluster region protein)
Procedure: as §4, §5

JNK2α2 = target: T19, JNK2α2 (Homo sapiens, UniProt P45984); experiment: Upstate KinaseProfiler radio-enzymatic filter binding assay, JNK2α2; format: biochemical; settings: at a concentration of 10 μM; read-out: percentage inhibition of JNK2α2
T19 construct: purchased Upstate (KinaseProfiler panel)
Procedure: as §1

FGFR3 = target: T20, FGFR3 (Homo sapiens, UniProt P22607); experiment: Upstate KinaseProfiler radio-enzymatic filter binding assay, FGFR3; format: biochemical; settings: at a concentration of 10 μM; read-out: percentage inhibition of FGFR3
T20 construct: purchased Upstate (KinaseProfiler panel)
Procedure: as §1

Lck = target: T21, Lck (Homo sapiens, UniProt P06239); experiment: Upstate KinaseProfiler radio-enzymatic filter binding assay, Lck; format: biochemical; settings: at a concentration of 10 μM; read-out: percentage inhibition of Lck
T21 construct: purchased Upstate (KinaseProfiler panel)
Procedure: as §1

SAPK2β = target: T22, SAPK2β (Homo sapiens, UniProt Q15759); experiment: Upstate KinaseProfiler radio-enzymatic filter binding assay, SAPK2β; format: biochemical; settings: at a concentration of 10 μM; read-out: percentage inhibition of SAPK2β
T22 construct: purchased Upstate (KinaseProfiler panel)
Procedure: as §1

Rsk1 = target: T23, Rsk1 (Homo sapiens, UniProt Q15418); experiment: Upstate KinaseProfiler radio-enzymatic filter binding assay, Rsk1; format: biochemical; settings: at a concentration of 10 μM; read-out: percentage inhibition of Rsk1
T23 construct: purchased Upstate (KinaseProfiler panel)
Excerpt: as §2, §3

SAPK2α = target: T24, SAPK2α (Homo sapiens, UniProt Q16539); experiment: Upstate KinaseProfiler radio-enzymatic filter binding assay, SAPK2α; format: biochemical; settings: at a concentration of 10 μM; read-out: percentage inhibition of SAPK2α
T24 construct: purchased Upstate (KinaseProfiler panel)
Procedure: as §1

PDGFRα = target: T25, PDGFRα (Homo sapiens, UniProt P16234); experiment: Upstate KinaseProfiler radio-enzymatic filter binding assay, PDGFRα; format: biochemical; settings: at a concentration of 10 μM; read-out: percentage inhibition of PDGFRα
T25 construct: purchased Upstate (KinaseProfiler panel)
Procedure: as §1

F317L Bcr-abl = target: T26, F317L Bcr-abl (Homo sapiens, UniProt P00519, F317L); experiment: Antiproliferative effect on Ba/F3 cells expressing F317L Bcr-abl; format: cell-based; settings: F317L mutant
T26 construct: BCR (fusion partner); expressed in transfected cells; host or cells: Ba/F3 (murine pro-B cells); the other entry of the earlier key: BCR (P11274, Breakpoint cluster region protein)
Procedure: as §4, §5

T16 sequence (P06213 28-1382): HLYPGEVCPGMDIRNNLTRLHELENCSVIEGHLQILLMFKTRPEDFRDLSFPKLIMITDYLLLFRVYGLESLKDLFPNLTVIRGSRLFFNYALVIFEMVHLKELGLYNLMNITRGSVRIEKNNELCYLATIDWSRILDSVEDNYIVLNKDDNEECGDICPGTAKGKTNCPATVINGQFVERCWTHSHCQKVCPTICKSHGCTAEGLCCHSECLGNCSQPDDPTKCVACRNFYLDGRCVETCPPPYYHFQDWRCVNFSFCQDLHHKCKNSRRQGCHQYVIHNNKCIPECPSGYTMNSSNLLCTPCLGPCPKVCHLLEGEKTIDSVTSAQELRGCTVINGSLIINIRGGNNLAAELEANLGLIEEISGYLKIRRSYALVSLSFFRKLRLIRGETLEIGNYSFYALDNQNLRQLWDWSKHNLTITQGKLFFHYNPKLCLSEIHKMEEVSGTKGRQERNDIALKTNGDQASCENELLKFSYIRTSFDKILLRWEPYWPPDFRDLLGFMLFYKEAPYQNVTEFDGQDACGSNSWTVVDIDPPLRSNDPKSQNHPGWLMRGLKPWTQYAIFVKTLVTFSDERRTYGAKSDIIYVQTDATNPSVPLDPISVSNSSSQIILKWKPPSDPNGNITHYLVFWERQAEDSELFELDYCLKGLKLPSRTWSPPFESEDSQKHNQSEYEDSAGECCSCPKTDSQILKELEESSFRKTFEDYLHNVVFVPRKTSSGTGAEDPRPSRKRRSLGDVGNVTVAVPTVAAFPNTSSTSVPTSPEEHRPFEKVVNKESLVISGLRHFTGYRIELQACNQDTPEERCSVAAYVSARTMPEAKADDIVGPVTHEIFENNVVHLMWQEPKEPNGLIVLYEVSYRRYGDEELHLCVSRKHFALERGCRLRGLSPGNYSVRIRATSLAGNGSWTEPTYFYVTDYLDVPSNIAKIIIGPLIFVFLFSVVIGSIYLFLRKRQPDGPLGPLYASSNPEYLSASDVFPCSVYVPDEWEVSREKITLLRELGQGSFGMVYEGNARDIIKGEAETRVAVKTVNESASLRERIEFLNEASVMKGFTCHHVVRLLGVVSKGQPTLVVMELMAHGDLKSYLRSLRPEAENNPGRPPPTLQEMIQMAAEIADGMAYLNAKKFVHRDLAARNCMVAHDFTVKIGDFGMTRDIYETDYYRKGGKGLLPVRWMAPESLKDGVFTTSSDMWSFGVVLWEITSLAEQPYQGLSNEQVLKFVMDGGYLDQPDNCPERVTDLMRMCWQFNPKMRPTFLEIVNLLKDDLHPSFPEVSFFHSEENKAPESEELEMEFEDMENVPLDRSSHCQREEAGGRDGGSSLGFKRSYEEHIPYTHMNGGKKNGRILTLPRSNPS
T8 sequence (P36888 27-993): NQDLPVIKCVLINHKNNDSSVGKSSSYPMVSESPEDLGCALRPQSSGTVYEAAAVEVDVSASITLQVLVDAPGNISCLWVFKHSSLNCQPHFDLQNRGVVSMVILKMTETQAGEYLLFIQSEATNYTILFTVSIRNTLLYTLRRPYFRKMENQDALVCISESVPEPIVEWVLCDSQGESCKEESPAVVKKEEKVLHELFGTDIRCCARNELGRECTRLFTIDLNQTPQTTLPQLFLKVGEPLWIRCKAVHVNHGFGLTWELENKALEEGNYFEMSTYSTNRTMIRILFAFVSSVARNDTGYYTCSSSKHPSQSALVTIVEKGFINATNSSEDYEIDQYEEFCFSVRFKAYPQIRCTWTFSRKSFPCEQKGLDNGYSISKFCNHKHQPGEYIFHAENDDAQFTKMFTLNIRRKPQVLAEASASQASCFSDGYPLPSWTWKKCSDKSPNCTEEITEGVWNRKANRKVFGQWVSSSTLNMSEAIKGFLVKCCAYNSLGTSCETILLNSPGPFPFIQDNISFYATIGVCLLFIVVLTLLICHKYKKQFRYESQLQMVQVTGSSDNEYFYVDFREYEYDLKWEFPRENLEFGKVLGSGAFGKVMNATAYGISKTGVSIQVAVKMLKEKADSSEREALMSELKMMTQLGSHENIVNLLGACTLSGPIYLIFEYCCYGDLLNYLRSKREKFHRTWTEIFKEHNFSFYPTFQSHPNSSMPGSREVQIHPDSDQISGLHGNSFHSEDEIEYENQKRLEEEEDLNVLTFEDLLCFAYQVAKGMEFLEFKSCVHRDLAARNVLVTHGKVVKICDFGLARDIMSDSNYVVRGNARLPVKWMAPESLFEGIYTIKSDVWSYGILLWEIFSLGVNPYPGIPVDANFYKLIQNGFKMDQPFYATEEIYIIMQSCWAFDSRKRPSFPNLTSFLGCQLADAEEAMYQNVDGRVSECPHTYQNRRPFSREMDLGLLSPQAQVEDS
T6 sequence (P04049 whole entry): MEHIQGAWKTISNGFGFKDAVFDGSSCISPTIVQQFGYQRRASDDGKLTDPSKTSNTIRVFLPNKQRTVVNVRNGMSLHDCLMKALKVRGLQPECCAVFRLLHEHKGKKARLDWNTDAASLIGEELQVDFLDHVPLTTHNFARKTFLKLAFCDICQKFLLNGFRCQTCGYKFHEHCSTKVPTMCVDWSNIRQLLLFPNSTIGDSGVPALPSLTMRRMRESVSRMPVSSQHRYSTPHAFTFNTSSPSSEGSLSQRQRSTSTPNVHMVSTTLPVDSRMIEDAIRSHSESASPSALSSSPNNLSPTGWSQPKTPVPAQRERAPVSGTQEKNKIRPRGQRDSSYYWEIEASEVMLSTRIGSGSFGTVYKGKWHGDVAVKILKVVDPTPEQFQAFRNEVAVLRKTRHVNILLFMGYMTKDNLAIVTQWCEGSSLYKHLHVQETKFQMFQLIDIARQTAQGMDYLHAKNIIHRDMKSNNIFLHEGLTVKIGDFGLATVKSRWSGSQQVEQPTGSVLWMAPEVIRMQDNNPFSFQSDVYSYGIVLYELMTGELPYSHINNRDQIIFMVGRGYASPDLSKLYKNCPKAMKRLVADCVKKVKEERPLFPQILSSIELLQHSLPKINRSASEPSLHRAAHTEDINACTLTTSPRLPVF
T19 sequence (P45984 whole entry): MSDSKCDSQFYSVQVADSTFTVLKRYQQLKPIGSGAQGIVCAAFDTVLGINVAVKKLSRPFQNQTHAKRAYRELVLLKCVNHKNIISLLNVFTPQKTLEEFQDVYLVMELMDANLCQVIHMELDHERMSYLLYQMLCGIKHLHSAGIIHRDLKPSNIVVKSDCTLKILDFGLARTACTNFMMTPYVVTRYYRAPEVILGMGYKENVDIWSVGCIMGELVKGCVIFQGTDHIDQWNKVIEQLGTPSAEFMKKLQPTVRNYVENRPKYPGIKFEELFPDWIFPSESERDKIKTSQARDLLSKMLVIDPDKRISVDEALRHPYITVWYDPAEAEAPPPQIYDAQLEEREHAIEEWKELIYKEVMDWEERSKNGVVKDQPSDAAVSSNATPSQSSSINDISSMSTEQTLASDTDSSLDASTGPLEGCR
T2 sequence (P52564 whole entry): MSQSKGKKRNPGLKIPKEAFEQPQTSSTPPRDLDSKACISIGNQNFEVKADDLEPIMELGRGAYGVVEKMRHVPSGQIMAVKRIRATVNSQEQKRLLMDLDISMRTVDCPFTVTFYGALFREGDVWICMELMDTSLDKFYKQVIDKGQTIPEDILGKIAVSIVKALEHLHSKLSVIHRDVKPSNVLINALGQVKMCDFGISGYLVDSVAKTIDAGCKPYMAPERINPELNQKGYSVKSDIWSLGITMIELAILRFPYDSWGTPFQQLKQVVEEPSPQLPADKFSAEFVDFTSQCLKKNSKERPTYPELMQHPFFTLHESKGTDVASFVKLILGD
T5 sequence (P41240 whole entry): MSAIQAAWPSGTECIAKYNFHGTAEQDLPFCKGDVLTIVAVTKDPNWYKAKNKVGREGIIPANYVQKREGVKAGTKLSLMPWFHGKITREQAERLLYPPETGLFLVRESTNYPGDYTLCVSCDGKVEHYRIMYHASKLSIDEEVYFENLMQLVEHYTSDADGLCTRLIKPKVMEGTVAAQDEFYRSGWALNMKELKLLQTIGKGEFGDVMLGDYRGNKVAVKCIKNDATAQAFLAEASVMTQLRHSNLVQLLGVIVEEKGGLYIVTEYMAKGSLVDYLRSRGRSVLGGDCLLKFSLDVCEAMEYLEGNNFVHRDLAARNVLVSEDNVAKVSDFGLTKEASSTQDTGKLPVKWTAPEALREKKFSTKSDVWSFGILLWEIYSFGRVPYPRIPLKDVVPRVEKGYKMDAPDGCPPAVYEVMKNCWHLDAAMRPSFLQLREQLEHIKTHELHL
T24 sequence (Q16539 whole entry): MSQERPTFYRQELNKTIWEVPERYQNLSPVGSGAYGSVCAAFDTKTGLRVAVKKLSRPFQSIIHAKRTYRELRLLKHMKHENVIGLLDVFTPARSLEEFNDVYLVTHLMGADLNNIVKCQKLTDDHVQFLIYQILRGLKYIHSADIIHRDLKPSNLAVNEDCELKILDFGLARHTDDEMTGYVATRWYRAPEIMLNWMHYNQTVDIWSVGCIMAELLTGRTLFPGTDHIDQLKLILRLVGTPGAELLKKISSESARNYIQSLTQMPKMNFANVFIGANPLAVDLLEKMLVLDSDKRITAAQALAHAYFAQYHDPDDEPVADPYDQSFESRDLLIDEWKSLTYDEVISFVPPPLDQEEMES
T10 sequence (P49841 whole entry): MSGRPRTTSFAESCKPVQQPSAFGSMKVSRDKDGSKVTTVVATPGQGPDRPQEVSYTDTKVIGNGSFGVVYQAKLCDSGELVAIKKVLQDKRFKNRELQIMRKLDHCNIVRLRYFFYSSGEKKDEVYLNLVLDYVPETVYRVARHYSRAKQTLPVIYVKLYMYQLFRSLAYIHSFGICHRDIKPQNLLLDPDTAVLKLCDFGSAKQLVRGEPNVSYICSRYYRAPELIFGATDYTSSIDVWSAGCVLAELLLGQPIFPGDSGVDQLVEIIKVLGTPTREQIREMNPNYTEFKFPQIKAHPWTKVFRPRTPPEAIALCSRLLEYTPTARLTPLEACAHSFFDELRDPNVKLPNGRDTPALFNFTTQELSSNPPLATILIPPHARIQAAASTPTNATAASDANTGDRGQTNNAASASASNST

Compound: Cc1ccc(Nc2ncc3nc(-c4cc(NC(=O)c5cccc(C(F)(F)F)c5)ccc4C)c(=O)n(C)c3n2)cn1 [Example 2, N-[4-methyl-3-(8-methyl-2-(6-methyl-pyridin-3-ylamino)7-oxo-7,8-dihydropteridin-6-yl)-phenyl]-3-trifluoromethyl-benzamide]
- inhibition at 10 µM (Syk): 76%
- inhibition at 10 µM (MKK6): 97%
- IC50 (wild type Bcr-abl): < 0.5 nM
- inhibition at 10 µM (Fes): 100%
- inhibition at 10 µM (CSK): 98%
- inhibition at 10 µM (c-RAF): 100%
- inhibition at 10 µM (p70S6K): 98%
- inhibition at 10 µM (Flt3): 64%
- IC50 (T315I Bcr-abl): 55 nM
- inhibition at 10 µM (GSK3β): 53%
- inhibition at 10 µM (JNK1α1): 98%
- IC50 (G250E Bcr-abl): 23 nM
- IC50 (E255V Bcr-abl): 13 nM
- inhibition at 10 µM (MKK4): 92%
- inhibition at 10 µM (Bmx): 100%
- inhibition at 10 µM (IR): 60%
- inhibition at 10 µM (TrkB): 96%
- IC50 (M351T Bcr-abl): < 0.5 nM
- inhibition at 10 µM (JNK2α2): 99%
- inhibition at 10 µM (FGFR3): 98%
- inhibition at 10 µM (Lck): 98%
- inhibition at 10 µM (SAPK2β): 99%
- inhibition at 10 µM (Rsk1): 90%
- inhibition at 10 µM (SAPK2α): 95%
- inhibition at 10 µM (PDGFRα): 76%
- IC50 (F317L Bcr-abl): < 0.5 nM
